A short description of data set [1]: Dynamic moisture sorption (DMS) assessment. The following applies: 25° C.; for hygroscopicity: DMS, 5% to 90% relative humidity; for weight gain (moisture uptake): humidity range of 5% to 90% relative humidity. It is filed as physicochemical. The procedure:
Dynamic moisture sorption (DMS) measurements were performed using a VTI atmospheric microbalance, SGA-100 system (VTI Corp., Hialeah, Fla. 33016). A weighed sample was used and the humidity was lowest possible value (close to 0% RH) at the start of the analysis. The DMS analysis consisted of an initial drying step (0% RH) for 120 minutes, followed by two cycles of sorption and desorption with a scan rate of 5% RH/step over the humidity range of 5% RH to 90% RH. The DMS run was performed isothermally at 25° C.

Data set [2] concerns IL-2 induced pSTAT5 in thymus. The data set can be described thus: Systemic target engagement: murine model of IL-2 induced pSTAT5 induction in thymus. It is filed as in vivo, mouse. The following applies: PO, 10, 30 and 50 mg/kg. The source says: IL-2 is an important cytokine underlying the pathophysiology of gastro-intestinal diseases such as […] bowel disease (IBD; Guan and Zhang. Mediators Inflamm, 2017; 4810258). IL-2 binds to cell surface receptors activating members of the Janus family of kinases (JAK), specifically JAK3, which then phosphorylates STAT5 and subsequently activates further transcription pathways. In this model, a dose of IL-2 was delivered systemically to mice to induce the phosphorylation of STAT5 (pSTAT5) which was then measured as the endpoint.
Adult male Balb/c mice from Harlan were used in the assay. Animals were administered test compound via oral gavage (PO, 10 or 30 mg/kg for single dose studies; 10-60 mg/kg for dose response studies) on the afternoon of the day prior to study and then in the morning on the day of study. Two hours after the second PO dose administration, mice were injected intraperitoneally (i.p.) with 100 μl of an appropriate IL-2 dose (for a total of 1-5 μg/mouse depending upon IL-2 batch; R&D Systems). 90-120 minutes after IL-2 insult, thymus samples were harvested.

A short description of data set [3]: Colon and plasma mouse pharmacokinetics. The format is in vivo. The following applies: male Balb/c mice, 10 mg/kg PO, 0.5, 2 and 6 hours. The procedure:
6 male Balb/c mice were administered 10 mg/kg of compound in 1% HPMC+0.1% Tween-80 by PO administration. At 0.5, 2 and 6 hours after dose administration, animals were anesthetized, and terminal blood samples were collected by cardiac puncture, followed by collection of colon contents and colon tissue.
Blood samples were collected into K2EDTA and stored on wet ice until processed to plasma by centrifugation (12000 rpm at 4° C.). Plasma samples were transferred to cluster tubes and placed on dry ice prior to freezer storage. The colon contents from each animal were collected at each terminal blood collection time point. The colon tissues were flushed with saline and patted dry. The colon and colon content tissues were homogenized using sterile water containing 0.1% formic acid 9:1 (water:tissue, v/w). The homogenized tissues and colon contents were transferred to cluster tubes and placed on dry ice prior to freezer storage. All samples were analyzed using LC/MS/MS against analytical standards.
The composite pharmacokinetic parameters of the compounds were determined by non-compartmental analysis using Phoenix WinNonlin Version 6 (Certara, St. Louis, Mo.) and using mean values from 2 animals/time point. For plasma concentrations below the quantification limit (BQL), the lowest concentration measurable or the BLOQ (below limit of quantification) was used.
A colon to plasma ratio was determined as the ratio of the colon AUC to the plasma AUC.

For a further data set, the system named is splenic NK cells. The data set can be described thus: Immunosuppression effects in mouse splenic natural killer (NK) cells. To be noted: positive control, 30 mg/kg PO, BID.
The test system of data set [4] is oxazolone-induced colitis. The data set can be described thus: Mouse model of oxazolone-induced colitis. The format is in vivo. The following applies: 3 mg/kg (PO, BID). As for the experimental part: Oxazolone-induced colitis is an experimental model that has a histological resemblance to human ulcerative colitis (Heller et al. Immunology, 2002, 17, 629-638). Adult BALB/C mice from Harlan were used in the assay. On day 1, animals were lightly anesthetized with isoflurane and the hairs between the shoulder were carefully removed before oxazolone (4%, 150 μL, 4:1 acetone:olive oil formulation) or vehicle solution was slowly applied for skin sensitization. Seven days after skin sensitization, the mice were fasted around 6 hours prior, anesthetized with ketamine/xylazine injection, and a 1 mL syringe equipped with a 3.5-F catheter, filled with oxazolone solution, was inserted carefully about 4 cm into the colon of the mouse. Following insertion, 50 μL of the oxazolone solution (0.8% in 1:1 ethanol:water formulation) was injected very slowly (over 30 sec using an injection pump) into the colon. Drug treatment (PO, QD or BID or TID) or vehicle was initiated a day prior to the oxazolone intrarectal (IR) challenge. Two-day post oxazolone intrarectal challenge, the disease was assessed by treatment-blinded experimenters for each mouse according to the criteria score: stool consistency score (0, normal; 2, loose; 4, diarrhea), gross bleeding score (0, absence; 2, blood tinged; 4, presence); Combined stool score endpoint=stool consistency score+stool blood score.
Select compounds were tested in the assay.

In data set [5] the test system is IL-2 stimulated pSTAT5 in CD4+ T cells. The data set can be described thus: Inhibition of IL-2 stimulated pSTAT5 in CD4+ T cells isolated from murine splenocytes. The format is cell-based. To be noted: Mus musculus, AlphaLisa, read-out: pIC50, inhibition of IL-2 stimulated pSTAT5 (converted). The procedure: The potency of test compounds for inhibition of interleukin-2 (IL-2) stimulated STAT5 phosphorylation was measured in the CD4+ T cells isolated from murine splenocytes using AlphaLisa. Because IL-2 signals through JAK3, this assay provides a measure of JAK3 cellular potency in mouse.
Phosphorylated STAT5 was measured via the AlphaLISA SureFire Ultra pSTAT5 (Tyr694/699) kit (PerkinElmer).
CD4+ T cells were isolated from murine splenocytes via negative selection on a magnetic column (Miltnyi Biotec) and re-suspended in assay media (phenol red-free DMEM (Life Technologies) supplemented with 10% FBS (ATCC)). Cells were seeded at 50,000 cells/well in assay media (2 μL/well). Compounds were serially diluted in DMSO and diluted to 2× final concentration in assay media. Compound was added (4 μl/well) and the cells incubated at 37° C., 5% CO2 for 1 hour, followed by the addition of IL-2 (R&D Systems; final concentration 7 ng/ml) in pre-warmed assay media (2 μL) for 30 minutes. After cytokine stimulation, cells were lysed with 2 μl of 5× AlphaLisa Lysis Buffer (PerkinElmer). The lysate was shaken at 900 rpm for 10 minutes at room temperature (RT). Phosphorylated STAT5 was measured via the pSTAT5 AlphaLisa kit (PerkinElmer). Freshly prepared acceptor bead mixture was dispensed onto lysate (5 ul) under green filtered <100 lux light. Plates were shaken at 900 rpm for 2 mins, briefly spun down, and incubated for 2 hrs at RT in the dark. Donor beads were dispensed (5 μl) under green filtered <100 lux light. Plates were shaken at 900 rpm for 2 mins, briefly spun down, and incubated overnight at RT in the dark. Luminescence was measured with excitation at 689 nm and emission at 570 nm using an EnVision plate reader (PerkinElmer) under green filtered <100 lux light.
To determine the inhibitory potency of test compounds in response to IL-2, the average emission intensity of beads bound to pSTAT5 was measured in primary CD4+ T cells isolated from murine splenocytes. IC50 values were determined from analysis of the inhibition curves of signal intensity vs compound concentration. Data are expressed as pIC50 (negative decadic logarithm IC50) values (mean±standard deviation).

Experimental for splenic NK cells: Select compounds were assessed in the mouse splenic cell model following the same treatment paradigm used in the oxazolone-induced colitis model (assay 8).
Adult male Balb/C mice from Harlan were used for the study. The test compound and a Jak3 covalent inhibitor standard 2-propen-1-one, 1-[(2S,5R)-2-methyl-5-(7H-pyrrolo[2,3-d]pyrimidin-4-ylamino)-1-piperidinyl] (30 mg/kg, BID) as a positive control, were dosed orally for three days to naïve mice. Spleens were harvested up to 4 hours post last dose and crushed immediately for cell subtype staining. Prior to fixation, fluorophore-labelled antibodies for CD19 (FITC; B cells), CD3e (PE; pan T cells) and CD49e (APC; NK cells) were incubated with splenocyte samples from each animal to allow for simultaneous, multiple subtype % analysis on the flow cytometer. The number of total spleen cells for each animal was measured by Scepter™ 2.0 Handheld Automated Cell Counter.
The absolute number of lymphocyte subtype population (e.g., splenic B, T and NK cells) was calculated from the percentage of each subtype times the total spleen cells for each animal. A one-way ANOVA, with Fisher's LSD post hoc test, was used to compare the splenic lymphocytes number of the vehicle and test compound groups. The a level was set at p<0.05. Data were presented as the mean±SEM for each group.

As to `CN(C)C/C=C/C(=O)N1CC(C(C)(C)Oc2cc(-c3ccc(O)c(Cl)c3)cc3[nH]ncc23)C1` [Form 1, (E)-1-(3-(2-((6-(3-chloro-4-hydroxyphenyl)-1H-indazol-4-yl)oxy)propan-2-yl)azetidin-1-yl)-4-(dimethylamino)but-2-en-1-one], in data set [1], the hygroscopicity entry is on record as “slightly hygroscopic” and the “weight gain (moisture uptake)” value was “about 1.62%”.

As to `C=CC(=O)N1C[C@H](Nc2ncnc3[nH]ccc23)CC[C@@H]1C` [PF-06651600, 2-propen-1-one, 1-[(2S,5R)-2-methyl-5-(7H-pyrrolo[2,3-d]pyrimidin-4-ylamino)-1-piperidinyl], reference compound], the “inhibition of pSTAT5 induction in the thymus” value in data set [2] is recorded as “significant inhibition”. For the same molecule, the “colon to plasma ratio (colon AUC to plasma AUC)” value in data set [3] amounted to 2.8. In addition, in the data set on splenic NK cells, the “Splenic NK cell counts” value is given as “significantly decreased”.

`CN(C)C/C=C/C(=O)N1CC(COc2cc(-c3ccc(O)cc3)cc3[nH]ncc23)C1` [Form 4, (E)-4-(dimethylamino)-1-(3-(((6-(4-hydroxyphenyl)-1H-indazol-4-yl)oxy)methyl)azetidin-1-yl)but-2-en-1-one]: in data set [1], the hygroscopicity entry is reported as “moderately hygroscopic” and the “weight gain (moisture uptake)” value is on record as “about 5.01%”.

For `CN(C)C/C=C/C(=O)N1CC(C(C)(C)Oc2cc(-c3ccc(O)c(F)c3)cc3[nH]ncc23)C1` [Compound 19, (E)-1-(3-(2-((6-(3-fluoro-4-hydroxyphenyl)-1H-indazol-4-yl)oxy)propan-2-yl)azetidin-1-yl)-4-(dimethylamino)but-2-en-1-one], in data set [3] (mouse, colon tissue / plasma, read-out: colon to plasma ratio (colon AUC to plasma AUC)), the Kp is above 200. Also, in data set [4], the “combined stool score endpoint as compared with vehicle treated animals” value is reported as “statistically significant decrease”. The IC50 in data set [5] was below 1 µM.

Take `CN(C)C/C=C/C(=O)N1CC(C(C)(C)Oc2cc(-c3ccc(O)c(Cl)c3)cc3[nH]ncc23)C1` [Form 2, (E)-1-(3-(2-((6-(3-chloro-4-hydroxyphenyl)-1H-indazol-4-yl)oxy)propan-2-yl)azetidin-1-yl)-4-(dimethylamino)but-2-en-1-one]: in data set [1], the “weight gain (moisture uptake)” value is 7.99%.
